Each molecule was assayed against T1, HSD17B13 enzyme (Homo sapiens, UniProt Q7Z5P4) (assay: NADH detection assay (fluorescence based LTB3 assay) for HSD17B13 activity). Settings: substrate 25 μM LTB3, 3 mM NAD+, 125 nM HSD17B13 enzyme, 1 hour at 26.5° C.
T1 construct: His; made in house; host or cells: E. coli
T1 sequence (Q7Z5P4 20-300): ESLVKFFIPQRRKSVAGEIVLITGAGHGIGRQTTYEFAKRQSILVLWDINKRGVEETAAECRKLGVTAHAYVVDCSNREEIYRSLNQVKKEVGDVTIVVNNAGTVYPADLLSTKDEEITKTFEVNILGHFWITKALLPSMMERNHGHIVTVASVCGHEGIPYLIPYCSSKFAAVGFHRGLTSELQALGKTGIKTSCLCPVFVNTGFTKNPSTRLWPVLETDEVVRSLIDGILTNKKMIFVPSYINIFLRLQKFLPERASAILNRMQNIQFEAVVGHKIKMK
Format: biochemical
Summary of the method: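 E. coli-expressed His-tagged HSD17B13 (125 nM) with 25 μM LTB3 and 3 mM NAD+ in 1 M potassium phosphate pH 7.4, 1% DMSO, 1 h at 26.5 °C. NADH fluorescence (Ex 340/Em 445 nm) minus t=0 baseline and no-LTB3 controls, converted via NADH standards. IC50 from four-parameter fits over ten concentrations (30 μM-2.5 nM), duplicate runs.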
In the case of `COc1cccc(-c2cccc(Oc3ccc(F)c(NC(C)=O)c3)n2)c1F` [Example 107, N-(2-fluoro-5-{[6-(2-fluoro-3-methoxyphenyl)pyridin-2-yl]oxy}phenyl)acetamide], the IC50 is reported as greater than 30 µM. `COc1cccc(-c2cccc(Oc3ccc(O)nc3)n2)c1F` [Example 108, 5-{[6-(2-fluoro-3-methoxyphenyl)pyridin-2-yl]oxy}-1,2-dihydropyridin-2-one] showed an IC50 greater than 30 µM. With `CNC(=O)c1cc(Oc2cccc(-c3cccc(OC)c3F)n2)ccc1F` [Example 109, 2-fluoro-5-{[6-(2-fluoro-3-methoxyphenyl)pyridin-2-yl]oxy}-N-methylbenzamide] the IC50 was greater than 30 µM. In the case of `COc1cc(Oc2cccc(-c3ccc4cn[nH]c4c3)n2)ccc1F` [Example 110, 6-[6-(4-fluoro-3-methoxyphenoxy)pyridin-2-yl]-2H-indazole], the IC50 is reported as greater than 30 µM. `COc1cccc(-c2cccc(Oc3ccc(F)c(NS(C)(=O)=O)c3)n2)c1F` [Example 111, N-(2-fluoro-5-((6-(2-fluoro-3-methoxyphenyl)pyridin-2-yl)oxy)phenyl) methanesulfonamide] was tested, and the IC50 was greater than 30 µM. With `COc1cccc(-c2cccc(Oc3ccc(=O)n(C(F)F)c3)n2)c1F` [Example 112, 1-(difluoromethyl)-5-((6-(2-fluoro-3-methoxyphenyl)pyridin-2-yl)oxy)pyridin-2(1H)-one] the IC50 was greater than 30 µM. `O=S(=O)(Nc1cccc(-c2cccc(Oc3ccc(F)c(O)c3)n2)c1)C1CC1` [Example 113, N-(3-(6-(4-fluoro-3-hydroxyphenoxy)pyridin-2-yl)phenyl) cyclopropanesulfonamide] was tested, and the IC50 was 10 to 30 µM. For `O=S(=O)(Nc1cccc(-c2cccc(Oc3ccc(F)c(O)c3)n2)c1F)C1CC1` [Example 114, N-{2-fluoro-3-[6-(4-fluoro-3-hydroxyphenoxy)pyridin-2-yl]phenyl} cyclopropanesulfonamide], the IC50 was 5 to 10 µM.

Each molecule was assayed against T1, HSD17B13 enzyme (assay: Estrone detection assay (LC/MS, estradiol to estrone conversion) for HSD17B13 activity). Settings: substrate 4 μM Estradiol, 6 mM NAD+, 30 nM HSD17B13 enzyme, 2 hours at 26.5° C.
Format: biochemical
Protocol: Example B: Estrone Detection Assay for Evaluation of HSD17ß13 Activity and Identification of Inhibitors
The liquid chromatography/mass spectrometry (LC/MS) estrone detection assay monitors the conversion of estradiol to estrone by HSD17B13. This assay was undertaken in a 96wp format (Eppendorf deep well Plate 96/500) in an 80 μl reaction volume containing: 4 μM of Estradiol (E2; Cayman; Ser. No. 10/006,315), 6 mM NAD+(Sigma; #N0623) and 30 nM HSD17B13 enzyme (in-house; E. coli expressed His-tagged, purified, soluble protein) in a reaction containing […] potassium phosphate buffer pH 7.4, with 0.5% vehicle (DMSO). Reactions were incubated for 2 hours at 26.5° C., and estradiol (E2) conversion to estrone (E1) was quantitated by LC-MS/MS based analyte detection for both E2 and E1 using LCMS grade reagents.
Reactions were terminated by the addition of two volumes of acetonitrile (MeCN; LCMS grade; CAS #75/05/8) containing deuterated (D4)-E1 used as internal standard (Clear Synth; #CS-T-54273; 500 ng/mL final concentration). Samples were applied to pre-prepared Bond Elut-C18 extraction cartridges (3 mL; Agilent; Ser. No. 12/102,028), washed and eluted in MeCN. Eluates were dried under nitrogen and re-suspended in 60% methanol (LCMS grade methanol; CAS #67/56/1) before submission for analysis. Aqueous linearity for E2 and E1 were included for quantification.
Analysis of samples was undertaken on a XBridge BEH C18 column (Waters; #186003033) using 0.1% Diethyl Amine in MeCN (mobile phase A; DEA CAS #109-89-7) and 0.1% Diethyl Amine in milli-Q water (mobile phase B) in a 3 min gradient allowing 25% B. Analytes were detected in negative mode using MRM analysis, with E2 having a RT of 1.85 min and E1 having a RT of 2 min. Activity of the enzyme, in the absence of NAD+, was used to evaluate specificity of conversion. Enzyme activity in the presence of test samples was expressed as a percentage of the uninhibited enzyme activity, and plotted versus inhibitor concentration. Non-linear regression was performed using a four-parameter logistic model and GraphPad Prism software (GraphPad Software, La Jolla, CA). All assessments were undertaken in duplicate evaluations and pooled during extraction process and subsequently injected as duplicates for LC-MS/MS analysis.
In the case of `Oc1c(F)ccc(Oc2ccnc(-c3ccc(N4CCOCC4)cc3)n2)c1F` [Example 115, 2,6-difluoro-3-((2-(4-morpholinophenyl)pyrimidin-4-yl)oxy)phenol], the IC50 is reported as no more than 0.1 µM. Work on `O=S1(=O)CCN(c2ccc(-c3nccc(Oc4ccc(F)c(O)c4F)n3)cc2)CC1` [Example 116, 4-(4-(4-(2,4-difluoro-3-hydroxyphenoxy)pyrimidin-2-yl)phenyl) thiomorpholine 1,1-dioxide] yielded an IC50 of no more than 0.1 µM. For `Oc1c(Cl)ccc(Oc2ccnc(-c3ccc(N4CCOCC4)cc3)n2)c1F` [Example 117, 6-chloro-2-fluoro-3-((2-(4-morpholinophenyl)pyrimidin-4-yl)oxy)phenol], the IC50 was 0.1 to 0.5 µM. `Oc1c(Cl)ccc(Oc2ccnc(-c3ccc(N4CCOCC4)cc3)n2)c1Cl` [Example 118, 2,6-dichloro-3-((2-(4-morpholinophenyl)pyrimidin-4-yl)oxy)pheno] gave an IC50 of 0.5 to 1 µM.
